Consider seven compounds from PMC10387993, “New pyrimidine-N-β-D-glucosides: synthesis, biological evaluation, and molecular docking investigations” (Turkish Journal of Chemistry, 2023).

In brackets after ≈: the same amount, converted by molar mass. Bounds are passed on as bounds.

A word on the GI50: it is the concentration giving 50% growth inhibition. Lower therefore signals more potent growth inhibition. One may read the IC50 as the point on the concentration scale where inhibition reaches its midpoint.

Common to all, as to experiment: cells
What all share (assay type): cell-based

For test [1], the system named is C6 (Rat brain glioma). The following applies: Rattus norvegicus; for LC50 (concentration giving 50% net cell loss relative to time zero): read-out: LC50; for GI50 / IC50 / IC (total growth inhibition): C6, MTT; for IC50: read-out: IC50; for IC (total growth inhibition): read-out: TGI. In outline: (§1)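 Seed ~1 × 10^4 cells/well; final 200 μL. Add MTT in phenol-red-free RPMI 1640, 4 h. Solubilise formazan in DMSO + Sorenson's buffer, 30 min RT. Read 560/690 nm. ≥3 repeats.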

For test [2], the system named is A549. Particulars: Homo sapiens; for LC50 (concentration causing 50% net cell loss): A549, read-out: LC50; for GI50 / IC50 / IC (total growth inhibition): A549, MTT; for IC50: read-out: IC50; for IC (total growth inhibition): read-out: TGI. The method, boiled down: as §1
The test system of test [3] is HT29. Particulars: Homo sapiens; for LC50 (concentration giving 50% net cell loss relative to time zero): HT-29, read-out: LC50; for GI50 / IC50 / IC (total growth inhibition): HT-29, HT29, MTT; for IC50: read-out: IC50; for IC (total growth inhibition): read-out: TGI. In outline:
as §1

Test [4] concerns HeLa. The following applies: Homo sapiens; for GI50 / IC50 / IC (total growth inhibition): MTT; for IC50: read-out: IC50; for IC (total growth inhibition): read-out: TGI; for LC50 (concentration causing 50% net cell loss): read-out: LC50. The method, boiled down:
as §1

The test system of test [5] is Hep3B. Particulars: Homo sapiens; for GI50 / IC50 / IC (total growth inhibition): MTT; for IC50: read-out: IC50; for IC (total growth inhibition): read-out: TGI; for LC50 (concentration causing 50% net cell loss relative to time zero): read-out: LC50. The method, boiled down: as §1

As to `Cc1ccccc1-c1cc(-c2ccccn2)nc(N[C@@H]2O[C@H](CO)[C@@H](O)[C@H](O)[C@H]2O)n1` [Compound 1, N-[4-(2-methylphenyl)-6-pyridin-2-ylpyrimidin-2-yl]-β-D-glucopyranosylamine], in test [1], the LC50 (concentration giving 50% net cell loss relative to time zero) was found to be 245 µg/mL (≈ 578 µM), the 50% growth inhibitory concentration (GI50) turned out to be 6.34 µg/mL (≈ 14.9 µM), the IC50 is 41.2 µg/mL (≈ 97.1 µM) and the IC (total growth inhibition) came out at 24.3 µg/mL. In test [2], the LC50 (concentration causing 50% net cell loss) is above 500 µg/mL, the GI50 turned out to be 67.8 µg/mL (≈ 160 µM), the IC50 is above 500 µg/mL and the IC (total growth inhibition) is above 500 µg/mL. In addition, in test [3], the LC50 (concentration giving 50% net cell loss relative to time zero) is above 500 µg/mL, the GI50 is 3.41 µg/mL (≈ 8.03 µM), the half-inhibitory concentration (IC50) stood at 198 µg/mL (≈ 466 µM) and the IC (total growth inhibition) is above 500 µg/mL. Moreover, in test [4], the concentration for 50% growth inhibition (GI50) is 10.5 µg/mL (≈ 24.8 µM), the IC50 worked out at 54.4 µg/mL (≈ 128 µM), the IC (total growth inhibition) is 35.1 µg/mL and the LC50 (concentration causing 50% net cell loss) is 218 µg/mL (≈ 514 µM). In test [5], halving of growth (GI50) required 5.38 µg/mL (≈ 12.7 µM), the IC50 was above 500 µg/mL, the IC (total growth inhibition) is above 500 µg/mL and the LC50 (concentration causing 50% net cell loss relative to time zero) was above 500 µg/mL.

For `Cc1ccccc1-c1cc(-c2cccnc2)nc(N[C@@H]2O[C@H](CO)[C@@H](O)[C@H](O)[C@H]2O)n1` [Compound 2, N-[4-(2-methylphenyl)-6-pyridin-3-ylpyrimidin-2-yl]-β-D-glucopyranosylamine], in test [1], the LC50 (concentration giving 50% net cell loss relative to time zero) is 217 µg/mL (≈ 510 µM), the GI50 is 9.17 µg/mL (≈ 21.6 µM), the IC50 worked out at 49.7 µg/mL (≈ 117 µM) and the IC (total growth inhibition) worked out at 31.6 µg/mL. Further, in test [2], the LC50 (concentration causing 50% net cell loss) was above 500 µg/mL, halving of growth (GI50) required 11.6 µg/mL (≈ 27.3 µM), the IC50 is above 500 µg/mL and the IC (total growth inhibition) was above 500 µg/mL. Also, in test [3], the LC50 (concentration giving 50% net cell loss relative to time zero) was above 500 µg/mL, the GI50 is 2.46 µg/mL (≈ 5.8 µM), the IC50 is 453 µg/mL (≈ 1070 µM) and the IC (total growth inhibition) is above 500 µg/mL. Further, in test [4], the GI50 is above 500 µg/mL, the IC50 was above 500 µg/mL, the IC (total growth inhibition) is above 500 µg/mL and the LC50 (concentration causing 50% net cell loss) was above 500 µg/mL. Moreover, in test [5], the 50% growth inhibitory concentration (GI50) was 3.85 µg/mL (≈ 9.07 µM), the IC50 was above 500 µg/mL, the IC (total growth inhibition) is above 500 µg/mL and the LC50 (concentration causing 50% net cell loss relative to time zero) was above 500 µg/mL.

For `Cc1ccccc1-c1cc(-c2ccncc2)nc(N[C@@H]2O[C@H](CO)[C@@H](O)[C@H](O)[C@H]2O)n1` [Compound 3, N-[4-(2-methylphenyl)-6-pyridin-4-ylpyrimidin-2-yl]-β-D-glucopyranosylamine], in test [1], the LC50 (concentration giving 50% net cell loss relative to time zero) is 252 µg/mL (≈ 594 µM), the GI50 was 4.37 µg/mL (≈ 10.3 µM), the IC50 amounted to 33.5 µg/mL (≈ 78.9 µM) and the IC (total growth inhibition) was 17.4 µg/mL. In test [2], the LC50 (concentration causing 50% net cell loss) is above 500 µg/mL, the GI50 worked out at 6.49 µg/mL (≈ 15.3 µM), the IC50 is above 500 µg/mL and the IC (total growth inhibition) is above 500 µg/mL. Moreover, in test [3], the LC50 (concentration giving 50% net cell loss relative to time zero) is above 500 µg/mL, it took 2.22 µg/mL (≈ 5.23 µM) to inhibit growth by half (GI50), the IC50 amounted to 78.4 µg/mL (≈ 185 µM) and the IC (total growth inhibition) worked out at 230 µg/mL. For the same compound, in test [4], the GI50 was above 500 µg/mL, the IC50 was above 500 µg/mL, the IC (total growth inhibition) is above 500 µg/mL and the LC50 (concentration causing 50% net cell loss) is above 500 µg/mL. Besides, in test [5], the GI50 came out at 3.83 µg/mL (≈ 9.02 µM), the IC50 is above 500 µg/mL, the IC (total growth inhibition) was above 500 µg/mL and the LC50 (concentration causing 50% net cell loss relative to time zero) is above 500 µg/mL.

Turning to `CC(=O)OC[C@H]1O[C@@H](Nc2nc(-c3ccccn3)cc(-c3ccccc3C)n2)[C@H](OC(C)=O)[C@@H](OC(C)=O)[C@@H]1OC(C)=O` [Compound 10, 2,3,4,6-tetra-O-acetyl-N-[4-(2-methylphenyl)-6-pyridin-2-ylpyrimidin-2-yl]-β-D-glucopyranosylamine], in test [1], the LC50 (concentration giving 50% net cell loss relative to time zero) was 486 µg/mL (≈ 820 µM), halving of growth (GI50) required 2.21 µg/mL (≈ 3.73 µM), the IC50 was 21.9 µg/mL (≈ 36.9 µM) and the IC (total growth inhibition) came out at 9.19 µg/mL. For the same compound, in test [2], the LC50 (concentration causing 50% net cell loss) was above 500 µg/mL, the GI50 was above 500 µg/mL, the IC50 was above 500 µg/mL and the IC (total growth inhibition) is above 500 µg/mL. For the same compound, in test [3], the LC50 (concentration giving 50% net cell loss relative to time zero) is above 500 µg/mL, the GI50 was 2.1 µg/mL (≈ 3.54 µM), the IC50 was 71.1 µg/mL (≈ 120 µM) and the IC (total growth inhibition) was above 500 µg/mL. Further, in test [4], the GI50 was above 500 µg/mL, the IC50 was above 500 µg/mL, the IC (total growth inhibition) is above 500 µg/mL and the LC50 (concentration causing 50% net cell loss) was above 500 µg/mL. In test [5], the GI50 was 7.53 µg/mL (≈ 12.7 µM), the IC50 was above 500 µg/mL, the IC (total growth inhibition) was above 500 µg/mL and the LC50 (concentration causing 50% net cell loss relative to time zero) is above 500 µg/mL.

Consider `CC(=O)OC[C@H]1O[C@@H](Nc2nc(-c3cccnc3)cc(-c3ccccc3C)n2)[C@H](OC(C)=O)[C@@H](OC(C)=O)[C@@H]1OC(C)=O` [Compound 11, 2,3,4,6-tetra-O-acetyl-N-[4-(2-methylphenyl)-6-pyridin-3-ylpyrimidin-2-yl]-β-D-glucopyranosylamine], for which, in test [1], the LC50 (concentration giving 50% net cell loss relative to time zero) is 578 µg/mL (≈ 975 µM), halving of growth (GI50) required 2.1 µg/mL (≈ 3.54 µM), the IC50 is 21.9 µg/mL (≈ 36.9 µM) and the IC (total growth inhibition) turned out to be 8.83 µg/mL. Moreover, in test [2], the LC50 (concentration causing 50% net cell loss) was above 500 µg/mL, the GI50 was above 500 µg/mL, the IC50 is above 500 µg/mL and the IC (total growth inhibition) is above 500 µg/mL. Also, in test [3], the LC50 (concentration giving 50% net cell loss relative to time zero) is above 500 µg/mL, the GI50 was 2.75 µg/mL (≈ 4.64 µM), the IC50 is above 500 µg/mL and the IC (total growth inhibition) was above 500 µg/mL. Further, in test [4], the GI50 is above 500 µg/mL, the IC50 is above 500 µg/mL, the IC (total growth inhibition) was above 500 µg/mL and the LC50 (concentration causing 50% net cell loss) is above 500 µg/mL. Besides, in test [5], the GI50 came to 4.25 µg/mL (≈ 7.17 µM), the 50% inhibitory concentration (IC50) is above 500 µg/mL, the IC (total growth inhibition) was above 500 µg/mL and the LC50 (concentration causing 50% net cell loss relative to time zero) is above 500 µg/mL.

Turning to `CC(=O)OC[C@H]1O[C@@H](Nc2nc(-c3ccncc3)cc(-c3ccccc3C)n2)[C@H](OC(C)=O)[C@@H](OC(C)=O)[C@@H]1OC(C)=O` [Compound 12, 2,3,4,6-tetra-O-acetyl-N-[4-(2-methylphenyl)-6-pyridin-4-ylpyrimidin-2-yl]-β-D-glucopyranosylamine], in test [1], the LC50 (concentration giving 50% net cell loss relative to time zero) came out at 139 µg/mL (≈ 234 µM), it took 2.03 µg/mL (≈ 3.43 µM) to inhibit growth by half (GI50), the IC50 stood at 13 µg/mL (≈ 21.9 µM) and the IC (total growth inhibition) was determined as 6.49 µg/mL. In addition, in test [2], the LC50 (concentration causing 50% net cell loss) was above 500 µg/mL, the GI50 is above 500 µg/mL, the IC50 was above 500 µg/mL and the IC (total growth inhibition) was above 500 µg/mL. Moreover, in test [3], the LC50 (concentration giving 50% net cell loss relative to time zero) is above 500 µg/mL, the GI50 came to 2.23 µg/mL (≈ 3.76 µM), the IC50 worked out at 298 µg/mL (≈ 503 µM) and the IC (total growth inhibition) was above 500 µg/mL. In test [4], the GI50 was above 500 µg/mL, the IC50 is above 500 µg/mL, the IC (total growth inhibition) was above 500 µg/mL and the LC50 (concentration causing 50% net cell loss) is above 500 µg/mL. Also, in test [5], the GI50 came out at 4.88 µg/mL (≈ 8.23 µM), the IC50 is above 500 µg/mL, the IC (total growth inhibition) is above 500 µg/mL and the LC50 (concentration causing 50% net cell loss relative to time zero) was above 500 µg/mL.

For `CC(=O)OC[C@H]1O[C@@H](Nc2nc(-c3cccc(C)c3)cc(-c3ccccn3)n2)[C@H](OC(C)=O)[C@@H](OC(C)=O)[C@@H]1OC(C)=O` [Compound 13, 2,3,4,6-tetra-O-acetyl-N-[4-(3-methylphenyl)-6-pyridin-2-ylpyrimidin-2-yl]-β-D-glucopyranosylamine], in test [1], the LC50 (concentration giving 50% net cell loss relative to time zero) was 33.9 µg/mL (≈ 57.2 µM), the 50% growth inhibitory concentration (GI50) turned out to be 1.97 µg/mL (≈ 3.32 µM), the half-inhibitory concentration (IC50) was found to be 7.55 µg/mL (≈ 12.7 µM) and the IC (total growth inhibition) amounted to 4.7 µg/mL. In test [2], the LC50 (concentration causing 50% net cell loss) was above 500 µg/mL, the GI50 is above 500 µg/mL, the IC50 was above 500 µg/mL and the IC (total growth inhibition) is above 500 µg/mL. Moreover, in test [3], the LC50 (concentration giving 50% net cell loss relative to time zero) was above 500 µg/mL, the concentration for 50% growth inhibition (GI50) was determined as 2.94 µg/mL (≈ 4.96 µM), the IC50 was above 500 µg/mL and the IC (total growth inhibition) was above 500 µg/mL. In test [4], the GI50 turned out to be 4.48 µg/mL (≈ 7.56 µM), the IC50 came to 60.4 µg/mL (≈ 102 µM), the IC (total growth inhibition) was determined as 17.3 µg/mL and the LC50 (concentration causing 50% net cell loss) came out at 224 µg/mL (≈ 378 µM). Moreover, in test [5], the GI50 stood at 2.56 µg/mL (≈ 4.32 µM), the IC50 was above 500 µg/mL, the IC (total growth inhibition) was above 500 µg/mL and the LC50 (concentration causing 50% net cell loss relative to time zero) was above 500 µg/mL.
